Experimental data as given in US20180186742A1, “PICOLINAMIDES AS FUNGICIDES” (Dow AgroSciences LLC, priority 2017, published 2018).
Where two headings read alike, the source gives them in different places.

Legend:
Assay type in all cases: in vivo
Zymoseptoria tritici = assay: Leaf blotch of wheat (SEPTTR), disease control on wheat seedlings; conditions: low volume application at 121.5 g/H
Summary of the method: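 Z. tritici spores were inoculated onto wheat seedlings (Yuma, first leaf emerged) either before or after treatment. Treatment was an automated spray to run-off of acetone/Triton X-100 water solutions, or a track spray of EC formulations with 0.1% Trycol 5941. Plants were held in dew chambers at 20 °C and then a greenhouse at 20 °C. First-leaf severity (0–100%) was converted to percent control against untreated plants.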

Puccinia triticina = assay: Wheat brown rust (PUCCRT), disease control on wheat seedlings; conditions: low volume application at 121.5 g/H
Summary of the method: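 Compounds in acetone, diluted with nine volumes of water containing 110 ppm Triton X-100, sprayed to run-off on first-leaf Yuma wheat seedlings; track-spray tests used EC formulations with 0.1% Trycol 5941. Puccinia triticina spores applied before or after treatment. Overnight dark dew room at 22° C, 100% humidity, then greenhouse at 24° C.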

Phakopsora pachyrhizi = assay: Asian soybean rust (PHAKPA), disease control on soybean seedlings; conditions: High volume application at 25 ppm
Procedure: Technical grades of materials were dissolved in acetone, which were then mixed with nine volumes of water containing 0.011% Tween 20. The fungicide solutions were applied onto soybean seedlings using an automated booth sprayer to run-off. All sprayed plants were allowed to air dry prior to further handling.
Soybean plants (variety Williams 82) were grown in soil-less Metro mix, with one plant per pot. Two week old seedlings were used for testing. Plants were inoculated either 3 days prior to or 1 day after fungicide treatments. Plants were incubated for 24 h in a dark dew room at 22° C. and 100% relative humidity then transferred to a growth room at 23° C. for disease to develop. Disease severity was assessed on the sprayed leaves.

[1] = 24 h, 1 Day Protectant, read-out: SEPTTR disease control, 1DP, LV activity
[2] = 72 h, 3 Day Curative, read-out: SEPTTR disease control, 3DC, LV activity
[3] = 24 h, 1 Day Protectant, read-out: PUCCRT disease control, 1DP, LV activity
[4] = 72 h, 3 Day Curative, read-out: PUCCRT disease control, 3DC, LV activity
[5] = 24 h, 1 Day Protectant, read-out: PHAKPA 1DP disease control rating
[6] = 72 h, 3 Day Curative, read-out: PHAKPA 3DC disease control rating

Row | Structure (SMILES) | pest or weed control at 121.5 g/ha (Zymoseptoria tritici; [1]) [%] | pest or weed control at 121.5 g/ha (Zymoseptoria tritici; [2]) [%] | pest or weed control at 121.5 g/ha (Puccinia triticina; [3]) [%] | pest or weed control at 121.5 g/ha (Puccinia triticina; [4]) [%] | pest or weed control at 25 ppm (Phakopsora pachyrhizi; [5]) [%] | pest or weed control at 25 ppm (Phakopsora pachyrhizi; [6]) [%]
1 | COc1cc(F)ccc1[C@@H](C1CCCCC1)[C@H](C)OC(=O)[C@H](C)NC(=O)c1nccc(OC)c1OC(C)=O [Compound 223] | > 80 | > 80 | < 80 | < 80 | < 80 | < 0
2 | COc1cc(F)ccc1[C@@H](C1CCCC1)[C@H](C)OC(=O)[C@H](C)NC(=O)c1nccc(OC)c1OC(C)=O [Compound 224] | < 80 | < 0 | < 80 | < 80 | < 80 | < 0
3 | CCC(C)[C@H](c1ccc(F)cc1OC)[C@H](C)OC(=O)[C@H](C)NC(=O)c1nccc(OC)c1OC(C)=O (stereo partly drawn) [Compound 225] | > 80 | > 80 | > 80 | < 80 | > 80 | < 80
4 | COc1cc(F)ccc1[C@@H](C1CCC1)[C@H](C)OC(=O)[C@H](C)NC(=O)c1nccc(OC)c1OC(C)=O [Compound 226] | < 80 | < 80 | < 80 | < 80 | < 80 | < 0
5 | COc1cc(F)ccc1[C@H](C1CCCCC1)[C@H](C)OC(=O)[C@H](C)NC(=O)c1nccc(OC)c1OC(C)=O [Compound 227] | > 80 | > 80 | > 80 | > 80 | > 80 | < 80
6 | COc1cc(F)ccc1[C@H](C1CCCC1)[C@H](C)OC(=O)[C@H](C)NC(=O)c1nccc(OC)c1OC(C)=O [Compound 228] | > 80 | < 80 | > 80 | < 80 | > 80 | < 80
7 | CCC(CC)[C@@H](c1ccc(F)cc1OC)[C@H](C)OC(=O)[C@H](C)NC(=O)c1nccc(OC)c1OC(C)=O [Compound 229] | > 80 | > 80 | > 80 | < 80 | > 80 | < 80
8 | CCC(C)[C@@H](c1ccc(F)cc1OC)[C@H](C)OC(=O)[C@H](C)NC(=O)c1nccc(OC)c1OC(C)=O (stereo partly drawn) [Compound 230] | > 80 | < 80 | > 80 | > 80 | > 80 | < 80
9 | COc1cc(F)ccc1[C@H](C1CCC1)[C@H](C)OC(=O)[C@H](C)NC(=O)c1nccc(OC)c1OC(C)=O [Compound 231] | < 80 | < 80 | < 80 | < 80 | > 80 | < 80
10 | COc1cc(F)ccc1[C@H](C(C)C)[C@H](C)OC(=O)[C@H](C)NC(=O)c1nccc(OC)c1OC(C)=O [Compound 232] | > 80 | < 80 | > 80 | > 80 | > 80 | > 80
11 | COc1cc(F)ccc1[C@@H](C1CCCCC1)[C@H](C)OC(=O)[C@H](C)NC(=O)c1nccc(OC)c1OCOC(C)=O [Compound 233] | > 80 | > 80 | < 80 | < 80 | < 80 | < 80
12 | COc1cc(F)ccc1[C@@H](C1CCCC1)[C@H](C)OC(=O)[C@H](C)NC(=O)c1nccc(OC)c1OCOC(C)=O [Compound 234] | < 80 | < 80 | > 80 | < 80 | > 80 | < 0
